In ChEMBL document CHEMBL1137798, “Evaluation of natural products as inhibitors of human immunodeficiency virus type 1 (HIV-1) reverse transcriptase” (J Nat Prod, 1991):
Counter-ions that a name gives are not always drawn.

Target: Human immunodeficiency virus type 1 reverse transcriptase (Human immunodeficiency virus 1, UniProt Q72547)
Details: read-out: IC50 (converted)

SMILES	IC50
COc1c2occc2c(CC(O)C(C)(C)O)c2ccc(=O)oc12 (stereo not given)	> 628 µM
COC(=O)[C@H]1[C@H]2C[C@@H]3c4[nH]c5ccccc5c4CCN3C[C@H]2C[C@@H](O)[C@@H]1OC(=O)c1cc(OC)c(OC)c(OC)c1 [ISORAUNESCINE]	> 354 µM
COc1cc2c(c3c1/c(=N\N=c1/c4ccccc4n(C)c4c5c(cc(OC)c14)OC(C)(C)C=C5)c1ccccc1n3C)C=CC(C)(C)O2 [ACRONYCINE AZINE]	> 313 µM
C1CCN2C[C@]34C[C@H](C[C@@H]5CCCN([C@@H]6CCC[C@@H]3N6)[C@H]54)[C@H]2C1 [PANAMINE]	> 634 µM
COc1c2ccoc2nc2c(OC(C)=O)cccc12 [ACETYLROBUSRINE]	> 777 µM
CC[C@H]1CN2CCc3cc(OC)c(OC)cc3[C@@H]2C[C@@H]1CC1=NCCc2cc(OC)c(OC)cc21	17.3 µM
C=C(C)[C@@H]1CC[C@]2(CO)CC[C@]3(C)[C@H](CC[C@@H]4[C@@]5(C)CC[C@H](O)C(C)(C)[C@@H]5CC[C@]43C)[C@@H]12 [BETULIN]	> 452 µM
C[C@@H]1O[C@@H](O[C@H]2C[C@@H](O)[C@]3(CO)[C@H]4[C@H](O)C[C@]5(C)[C@@H](C6=CC(=O)OC6)CC[C@]5(O)[C@@H]4CC[C@]3(O)C2)[C@H](O)[C@H](O)[C@H]1O [OUABAIN]	> 342 µM
C/C=C1\CN2[C@H]3C[C@@]45c6ccccc6N(C)[C@@H]4[C@@H]2C[C@@H]1[C@@]3(C(=O)OC)C5O (stereo not given in full) [VINCAMAJINE]	> 546 µM
COc1c([N+](=O)[O-])c2c(c3c1c(=O)c1ccccc1n3C)C=CC(C)(C)O2 [NITROACRONYCINE]	> 546 µM
COc1ccc2c(c1OC)C[N+]1(C)CCc3cc4c(cc3C1C2)OCO4 (stereo not given) [CANADINE METHCHLORIDE]	> 513 µM
C=C1C[C@@]23CC[C@H]4[C@@](C)(CCC[C@@]4(C)C(=O)O)[C@@H]2CC[C@]1(O)C3 [STEVIOL]	> 628 µM
CC[C@H]1C[C@@H]2CN3CCc4c([nH]c5cc(OC)c(OC)cc45)[C@](C(=O)OC)(C2)[C@H]13 [CONOPHARYNGINE]	> 502 µM
C1CCN2C[C@@H]3C[C@@H](CN4CCCC[C@@H]34)[C@H]2C1 [SPARTEINE]	> 853 µM
C/C=C1/CN(C(C)=O)[C@H]2Cc3c([nH]c4ccccc34)C(=O)C[C@@H]1[C@@H]2C(=O)OC	> 526 µM
C/C=C/C=C1\C=Cc2c(C(=O)OC)coc(=O)c21 [FULVOPLUMIERIN]	184 µM
COC(=O)[C@@H]1[C@@H](OC)[C@H](OC(=O)c2cc(OC)c(OC)c(OC)c2)C=C2CN3CCc4c([nH]c5ccccc45)[C@@H]3C[C@@H]21 [DESERPIDEINE HYDROCHLORIDE]	> 326 µM
C1CCN2C[C@@H]3C[C@@H](CN4CCCC[C@@H]34)[C@H]2C1 [SPARTEINE SULFATE]	> 473 µM
COc1cc(O)c2c(=O)cc(-c3ccc(O)c(OC)c3)oc2c1 [VELUTIN]	> 636 µM
C[C@H](O)C1=C[C@@]2(C=C[C@@H]3C(C(=O)O)=CO[C@@H](O[C@@H]4O[C@H](CO)[C@@H](O)[C@H](O)[C@H]4O)[C@@H]32)OC1=O	> 438 µM
COc1cc2c3cc1Oc1cc(ccc1O)C[C@@H]1c4c(cc(OC)c(O)c4Oc4ccc(cc4)C[C@@H]3N(C)CC2)CC[N+]1(C)C	> 310 µM
CC(=O)O[C@@H]1[C@H]2[C@H]3C[C@H]4C5=Nc6ccccc6[C@]51C[C@@H]2N4[C@H](C)C3C=O (stereo not given in full) [PERAKINE]	> 571 µM

SMILES	IC50
C/C=C(/C)C(=O)O[C@H]1CCN2CC=C(COC(=O)[C@](O)([C@H](C)OC)C(C)(C)O)[C@H]12 [LASIOCARPINE]	> 486 µM
CC(C)=CCC[C@](C)(O[C@@H]1O[C@H](CO[C@@H]2O[C@H](CO)[C@@H](O)[C@H](O)[C@H]2O)[C@@H](O)[C@H](O)[C@H]1O)[C@H]1CC[C@]2(C)[C@@H]1[C@H](O)C[C@@H]1[C@@]3(C)CC[C@H](O[C@@H]4O[C@H](CO)[C@@H](O)[C@H](O)[C@H]4O[C@@H]4O[C@H](CO)[C@@H](O)[C@H](O)[C@H]4O)C(C)(C)[C@@H]3CC[C@]12C [GINSENOSIDE RB1]	> 180 µM
COc1ccc2[nH]c3c(C)c4ccncc4c(C)c3c2c1	< 543 µM
COc1c(O)c2c3c(nccc3c1OC)C(C)(C)c1cc(O)ccc1-2 [MELOSMINE]	> 593 µM
CC[C@H]1CN2CCc3cc(OC)c(OC)cc3[C@@H]2C[C@@H]1C[C@H]1NCCc2c1[nH]c1ccc(O)cc21 [TUBULOSINE]	> 420 µM
COc1ccc(C(=O)Cc2c(CCN(C)C)cc3c(c2OC)OCO3)c(C(=O)O)c1OC [NARCEINE]	> 449 µM
C[n+]1cccc(C(=O)[O-])c1 [TRIGONELLINE HYDROCHLORIDE]	> 1150 µM
CCC1=C[C@@H]2CN3CCc4c([nH]c5ccccc45)[C@](C(=O)OC)(C2)[C@@H]13 [CATHARANTHINE HYDROCHLORIDE]	> 536 µM
CN1Cc2c(ccc3c2OCO3)[C@@H]2[C@H]1c1cc3c(cc1C[C@@H]2O)OCO3 [CHELIDONINE]	< 566 µM
COC(=O)C1=CO[C@@H](O[C@@H]2O[C@H](CO)[C@@H](O)[C@H](O)[C@H]2O)[C@H]2[C@@H]1C=C[C@@]21C=C([C@H](C)OC(=O)/C=C/c2ccc(O)cc2)C(=O)O1	> 324 µM
COc1c2c(c(O)c3ccoc13)C(=O)[C@H]1c3cc4c(cc3OC[C@H]1O2)OCO4	> 523 µM
CC1(C)O[C@H]2CC(=O)OC[C@]23[C@H]2CC[C@@]4(C)[C@H](c5ccoc5)OC(=O)[C@H]5O[C@]54[C@]2(C)C(=O)C[C@@H]13 [LIMONIN]	> 425 µM
CC[C@]12CN3CCc4c([nH]c5ccccc45)[C@@](C(=O)OC)(c4cc5c(cc4OC)N(C)[C@H]4[C@@](O)(C(=O)OC)[C@H](OC(C)=O)[C@]6(CC)C=CCN7CC[C@]54[C@@H]76)C[C@@H](C3)[C@H]1O2 [VINLEUROSINE SULFATE]	> 233 µM
COC(=O)C[C@](O)(CCCC(C)(C)O)C(=O)O[C@@H]1C(OC)=C[C@]23CCCN2CCc2cc4c(cc2[C@H]13)OCO4 [OMACETAXINE MEPESUCCINATE]	> 367 µM
COc1cc(O)c2c(=O)cc(-c3ccc(O)cc3)oc2c1 [GENKWANIN]	> 704 µM
COc1ccc2c(c1OC)CN1CCc3cc4c(cc3C1=C2)OCO4 [DIHYDROBERBERINE]	> 593 µM
O=C1C[C@]23C=CCN4CC[C@H]5c6cc7c(cc6N1[C@@]5(CC2)[C@@H]43)OCO7 [SCHIZOZYGINE]	> 595 µM
COc1cc2c(c3c1c(=O)c1ccccc1n3C)CCC(C)(C)O2 [DIHYDROACRONYCINE]	> 618 µM
COc1cc([C@H]2OC[C@H]3[C@@H]2CO[C@@H]3c2cc(OC)c(O[C@@H]3O[C@H](CO)[C@@H](O)[C@H](O)[C@H]3O)c(OC)c2)cc(OC)c1O[C@@H]1O[C@H](CO)[C@@H](O)[C@H](O)[C@H]1O [LIRIODENDRIN]	> 269 µM
C[C@H]1/C(=C/C(=O)OCCN(C)C)CC[C@H]2[C@H]1C(=O)C[C@H]1C(C)(C)[C@@H](OS(=O)(=O)O)CC[C@]21C [CASSAINE SULFATE]	> 412 µM
C/C=C1/CN(C=O)[C@H]2Cc3c([nH]c4ccccc34)C(=O)C[C@@H]1[C@@H]2C(=O)OC [PERIFORMYLINE]	> 546 µM
O=C(/C=C/c1ccc(O)cc1)OC[C@H]1O[C@@H](Oc2c(-c3ccc(O)cc3)oc3cc(O)cc(O)c3c2=O)[C@H](O)[C@@H](O)[C@@H]1O [TILIROSIDE]	< 336 µM

SMILES	IC50
CC[C@H]1[C@@H]2C[C@H]3[C@@H]4N(C)c5ccccc5[C@]45C[C@@H]([C@@H]2[C@H]5O)N3[C@@H]1O [AJMALINE]	> 613 µM
CNC[C@H](O)c1cccc(O)c1 [PHENYLEPHRINE]	> 1200 µM
CN[C@@H](C)[C@H](O)c1ccccc1 [EPHEDRINE SULFATE]	> 933 µM
COc1ccc2cc1Oc1ccc(cc1)C[C@H]1c3cc(c(OC)cc3CCN1C)Oc1c(OC)c(OC)c(OC)c3c1[C@H](C2)N(C)CC3 [HERNANDEZINE]	> 306 µM
O=c1oc2c(O)c(O)cc3c(=O)oc4c(O)c(O)cc1c4c23 [ELLAGIC ACID]	< 496 µM
C=C(C)C(O)C(O)c1cc2ccc(=O)oc2cc1OC (stereo not given) [THAMNOSMONIN]	> 724 µM
COC(=O)C1=CO[C@@H](C)[C@@H]2Cn3ccc4c5ccccc5nc-4c3C[C@H]12 [ALSTONINE HYDROCHLORIDE]	< 390 µM
COc1cc2c(cc1O)C[C@H]1c3c(cc(O)c(OC)c3-2)CCN1C [BOLDINE]	> 611 µM
O=C1CCC[C@H]2[C@@H]3CCCN4CCC[C@H](CN12)[C@@H]34 [LEONTINE]	> 805 µM
C[C@H]1C(=O)O[C@@H]2CCN3CC=C(COC(=O)[C@](C)(O)[C@]1(C)O)[C@H]23 [MONOCROTALINE]	> 615 µM
COc1cc2c(cc1OC)N1C(=O)C[C@]34C=CCN5CC[C@@H]2[C@@H](CC3)C514	> 567 µM
COc1ccc2c(c1OC)C(=O)O[C@@H]2[C@H]1c2cc3c(cc2CCN1C)OCO3 [HYDRASTINE]	> 522 µM
COC(=O)[C@@]12OC[C@]34[C@H]([C@@H](O)[C@@H]1O)[C@@]1(C)CC(=O)C(O)=C(C)[C@@H]1C[C@H]3OC(=O)[C@H](OC(=O)/C=C(\C)C(C)C)[C@@H]24 [BRUCEANTIN]	> 365 µM
COC(=O)C1=CO[C@@H](C)[C@@H]2CN3CCc4c([nH]c5ccc(OC)cc45)[C@@H]3C[C@H]12 [ARICINE]	> 523 µM
O=c1c(O)c(-c2ccc(O)c(O)c2)oc2cc(O)cc(O)c12 [QUERCETIN]	< 662 µM
COC(=O)CC1(O)C=CC(=O)C=C1 [JACARANONE]	> 1100 µM
C1CCN2C[C@]34C[C@H](C[C@@H]5CCCN([C@@H]6CCC[C@@H]3N6)[C@H]54)[C@H]2C1 [PANAMINE DIPERCHLORATE]	> 387 µM
C=C1c2cc3[nH]ccc3cc2CN2CC[C@@H]1/C(=C\C)C2 [PERICALLINE]	> 757 µM
C=C(C)[C@@H]1[C@H]2OC(=O)[C@@H]1[C@]1(O)C[C@H]3OC34C(=O)O[C@H]2[C@@]41C.CC(C)(O)[C@@H]1[C@H]2OC(=O)[C@@H]1[C@]1(O)C[C@H]3OC34C(=O)O[C@H]2[C@@]41C (stereo not given in full) [PICROTOXIN]	> 332 µM
COc1cc2c(cc1OC)[C@@H]1Cc3ccc(OC)c(OC)c3CN1CC2 [TETRAHYDROPALMATINE]	> 563 µM
CC1(C)CC[C@]2(C)CC[C@]3(C)C(=CC[C@@H]4[C@@]5(C)CC[C@H](O)C(C)(C)[C@@H]5CC[C@]43C)[C@@H]2C1 [beta-AMYRIN]	> 469 µM
